biological target: T1, 5α-Reductase (Homo sapiens, UniProt P18405); assay: Inhibition of 5α-reductase in Hs68 human genital skin fibroblasts (conversion of labelled testosterone, TLC); type: cell-based; conditions: 1.0 μM test compound; Hs68 cells; 12 μM testosterone; 4 h; read-out: % Inhibition
T1 construct: host or cells: Hs68 human genital skin fibroblasts
T1 sequence (P18405 1-259): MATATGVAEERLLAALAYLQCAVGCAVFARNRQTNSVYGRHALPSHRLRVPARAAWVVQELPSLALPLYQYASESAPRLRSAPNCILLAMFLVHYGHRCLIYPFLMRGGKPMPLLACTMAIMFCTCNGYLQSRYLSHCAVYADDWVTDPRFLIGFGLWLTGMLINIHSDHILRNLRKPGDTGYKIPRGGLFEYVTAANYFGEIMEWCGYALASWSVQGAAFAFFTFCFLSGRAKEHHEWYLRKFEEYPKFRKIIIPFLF
Procedure: Cell Culture: 5α-Reductase activity was measured using Hs68 human genital skin fibroblasts which were originally purchased from the American Type Culture Collection (Rockville, Md.). The cells were grown in Dulbecco's Modified Eagle's Medium (DMEM) plus 10% stripped fetal bovine serum which was supplemented with amphotericin B (0.25 μg/ml) and gentamicin (25.0 μg/ml) (GIBCO, Grand Island, N.Y.). The serum was stripped of endogenous steroids by incubation with dextran-coated charcoal prior to its addition to the media. The cells were maintained at 37° C. in an atmosphere of 95% air, 5% CO2 and were passaged every 7-10 days by exposure to a trypsin-EDTA solution (0.025% trypsin, 0.265 mM EDTA). Prior to the assay the Hs68 cells were harvested and plated in Falcon 6-well plates (Becton Dickinson Labware, Lincoln Park, N.J.) at a density of 6×10^4 cells per well. The cells were allowed to grow for 4-5 days or until they reached approximately 80% confluence.
Assay Method I: The substrate was prepared by dissolving unlabeled testosterone (Sigma Chemical Co., St. Louis, Mo.) in absolute ethanol followed by the addition of [7-^3 H (N)]-testosterone (23.3 Ci/mmole, New England Nuclear, Boston, Mass.). The steroid solution was taken to dryness under a stream of nitrogen and then reconstituted in media.
Assay Method II: The substrate used for this method was [^14 C]-testosterone (50 mCi/mmol) (New England Nuclear, Boston, Mass.). An aliquot of the substrate was taken to dryness under a stream of nitrogen. After the addition of 30 μl of ethanol, the testosterone was brought up in an appropriate volume of media.
Sample Preparation: The test compounds were dissolved in absolute ethanol in order to achieve the desired concentration. Subsequent dilutions of the test compounds with media were performed by the Biomek 1000 Automated Laboratory Workstation (Beckman Instruments, Palo Alto, Calif.). The existing media in the sample wells was aspirated and replaced with fresh media. Test compound was then added to the wells followed by the addition of 0.5 ml of the substrate. The volume of the incubation mixture was maintained at 2.0 ml. The final substrate concentration was 12 μM. The concentration of the test compounds ranged from 0.001-15 μM. An additional three wells (background) containing media and substrate but no cells were also included to account for the non-enzymatic metabolism of the substrate. The plates were returned to the incubator and incubated for four hours.
At the end of the incubation the media was collected and transferred to an extraction tube containing 5 ml of tolueneethanol (9:1), to which has been added 40-250 μg each of unlabeled carrier steroids (estriol, estradiol, estrone, 5α-androstan-3α,17β-diol, 5α-androstan-3β,17β-diol, 4-androstene-3,17-dione, 5α-androstan-3,17-dione, testosterone, and 5α-dihydrotestosterone) (Steraloids, Inc. Wilton, N.H.). In the case of Assay Method I the extraction tube also contained 1,000 and 10,000 dpm of [4-^14 C]-dihydrotesterone (50-60 mCi/mmol) and [4-^14 C]-testosterone (50 mCi/mmol) (New England Nuclear, Boston, Mass.), respectively. The [^14 C]-steroids were included as recovery standards to quantify procedural losses. A small amount of NaCl was also added to the extraction tubes to prevent foaming. The samples were vortexed for approximately 30 seconds and then centrifuged for 10 minutes at 500×g. The organic phase was collected and the samples taken to dryness, redissolved in dichloromethane-methanol (9:1) and were analyzed by thin layer chromatography using one of the methods described below.

Row | Compound | inhibition at 1 µM [%]
1 | CN1C(=O)CCC2=C1CCc1ccccc12 [Example 7, 4-methyl-1,2,3,4,5,6,-hexahydrobenzo[f]quinolin-3-one] | 48
2 | O=C1CCC2=C(CCc3cc(Cl)ccc32)N1 [Example 10, 8-chloro-1,2,3,4,5,6-hexahydrobenzo[f]quinolin-3-one] | 81
3 | COc1ccc2c(c1)CCC1=C2CCC(=O)N1 [Example 11, 8-methoxy-1,2,3,4,5,6-hexahydrobenzo[f]quinolin-3-one] | 20
4 | O=C1CCC2=C(CCc3cccc(Br)c32)N1 [Example 16, 10-bromo-1,2,3,4,5,6-hexahydrobenzo[f]quinolin-3-one] | 14
5 | O=C1CCC2=C(CCc3cccc(Cl)c32)N1 [Example 17, 10-chloro-1,2,3,4,5,6-hexahydrobenzo[f]quinolin-3-one] | 0.3
6 | O=C1CCC2=C(CCc3c(F)cccc32)N1 [Example 18, 7-fluoro-1,2,3,4,5,6-hexahydrobenzo[f]quinolin-3-one] | 36
7 | CN1C(=O)CCC2=C1CCc1c(F)cccc12 [Example 19, 7-fluoro-4-methyl-1,2,3,4,5,6-hexahydrobenzo[f]quinolin-3-one] | 61
8 | CN1C(=O)CCC2=C1CCc1ccc(F)cc12 [Example 21, 9-fluoro-4-methyl-1,2,3,4,5,6-hexahydrobenzo[f]quinolin-3-one] | 60
9 | CN1C(=O)CCC2=C1CCc1cccc(F)c12 [Example 22, 10-fluoro-4-methyl-1,2,3,4,5,6-hexahydrobenzo[f]quinolin-3-one] | 35
10 | O=C1CCC2=C(CCc3cc(F)ccc32)N1Cc1ccccc1 [Example 23, 8-fluoro-4-benzyl-1,2,3,4,5,6-hexahydrobenzo[f]quinolin-3-one] | 37
11 | CCN1C(=O)CCC2=C1CCc1cc(F)ccc12 [Example 24, 8-fluoro-4-ethyl-1,2,3,4,5,6-hexahydrobenzo[f]quinolin-3-one] | 31
12 | COc1ccc2c(c1)C1=C(CC2)NC(=O)CC1 [Example 26, 9-methoxy-1,2,3,4,5,6-hexahydrobenzo[f]quinolin-3-one] | 12
13 | COc1cccc2c1C1=C(CC2)NC(=O)CC1 [Example 27, 10-methoxy-1,2,3,4,5,6-hexahydrobenzo[f]quinolin-3-one] | 0
14 | COc1cc2c(cc1OC)C1=C(CC2)NC(=O)CC1 [Example 28, 8,9-dimethoxy-1,2,3,4,5,6-hexahydrobenzo[f]quinolin-3-one] | 33
15 | Cc1cccc2c1C1=C(CC2)NC(=O)CC1 [Example 29, 10-methyl-1,2,3,4,5,6-hexahydrobenzo[f]quinolin-3-one] | 41

same assay, conditions: Hs68

Row | Compound | inhibition at 1 µM [%]
16 | O=C1CCC2=C(CCc3cccc(F)c32)N1 [Example 20, 10-fluoro-1,2,3,4,5,6-hexahydrobenzo[f]quinolin-3-one] | 22
